Values of other authors in patent US20210321634A1, “Lactobacillus Acidipiscis, Fermented Soymilk, and Preparation Method and Use Thereof” (Hebei Agricultural University, priority 2020, published 2021).

How the values were obtained:
[1] = compared with daidzein and genistein
[2] = compared with daidzein

In the case of `O=C1c2ccc(O)cc2OCC1c1ccc(O)cc1` (stereo not drawn) [DHD, dihydrodaidzein], the “DPPH free radical scavenging activity” value [1] is listed as “significantly higher” and the cardiovascular protective activity [2] is listed as “significantly higher”.

In the case of `O=C1c2c(O)cc(O)cc2OCC1c1ccc(O)cc1` (stereo not drawn) [DHG, dihydrogenistein], the “DPPH free radical scavenging activity” value [1] is listed as “significantly higher”.
